Data taken from patent US20040127492A1 (Pharmacia Corporation, priority 2002, published 2004).
Counter-ions that a name gives are not always drawn. Like-named read-outs stand apart in the source and are kept apart here.

Molecular target: MAPKAPK2 (MK-2) (Homo sapiens, UniProt P49137)
Assay: Determination of MK-2 IC50 (HSP-peptide phosphorylation, anion exchange resin capture assay)
Type: biochemical
Procedure: Determination of MK-2 IC50:
Recombinant MAPKAPK2 was phosphorylated at a concentration of 42-78 μM by incubation with 0.23 μM of active p38α in 50 mM HEPES, 0.1 mM EDTA, 10 mM magnesium acetate, and 0.25 mM ATP, pH 7.5 for one hour at 30° C.
The phosphorylation of HSP-peptide ([…]) by MAPKAPK2 was measured using an anion exchange resin capture assay method. The reaction was carried out in 50 mM β-glycerolphosphate, 0.04% BSA, 10 mM magnesium acetate, 2% DMSO and 0.8 mM dithiotheritol, pH 7.5 in the presence of the HSP-peptide with 0.2 μCi [γ^33P]ATP and 0.03 mM ATP. The reaction was initiated by the addition of 15 nM MAPKAPK2 and was allowed to incubate at 30° C. for 30 min. The reaction was terminated and [γ^33P]ATP was removed from solution by the addition of 150 μl of AG 1×8 ion exchange resin in 900 mM sodium formate pH 3.0. A 50 μl aliquot of head volume was removed from the quenched reaction mixture and added to a 96-well plate, 150 μl of Microscint-40 (Packard) was added and the amount of phosphorylated-peptide was determined. Allow the Microscint to sit in the plates for 60 minutes prior to counting.
Compounds are evaluated as potential inhibitors of the MK-2 kinase by measuring their effects on MK-2 phosphorylation of the peptide substrate. Compounds may be screened initially at two concentrations prior to determination of IC50 values. Screening results are expressed as percent inhibition at the concentrations of compound tested. For IC50 value determinations, Compounds are tested at six concentrations in ten-fold serial dilutions with each concentration tested in triplicate. Results are expressed as IC50 values in micromolar. The assay is performed at a final concentration of 2% DMSO.

Sequence of MAPKAPK2 (MK-2) (P49137 whole entry, species assumed): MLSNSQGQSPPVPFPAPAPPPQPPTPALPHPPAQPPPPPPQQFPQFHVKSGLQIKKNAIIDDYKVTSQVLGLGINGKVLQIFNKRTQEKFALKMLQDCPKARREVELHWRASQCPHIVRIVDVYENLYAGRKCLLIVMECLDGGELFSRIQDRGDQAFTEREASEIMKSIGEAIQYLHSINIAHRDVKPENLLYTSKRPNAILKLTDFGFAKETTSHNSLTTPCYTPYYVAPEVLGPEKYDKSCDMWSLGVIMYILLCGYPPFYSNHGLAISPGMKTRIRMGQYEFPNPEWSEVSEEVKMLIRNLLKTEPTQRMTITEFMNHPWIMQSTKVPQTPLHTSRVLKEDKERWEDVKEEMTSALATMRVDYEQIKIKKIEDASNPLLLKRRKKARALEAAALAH

Row | IC50 (read-out: MK-2 Avg. IC50) | Structure (SMILES) | IC50 (MK-2 Avg. IC50)
1 | 25.3 µM | NC(=O)NCCCn1nc2c(c1C(=O)O)CCc1cnccc1-2 [Example 192] | 
2 | 27.3 µM | O=C1NC(CNCc2ccc(Cl)cc2)Cn2nc3c(c21)CCc1cnccc1-3 (stereo not shown) [Example 193] | 
3 | 27.7 µM | O=C1NCCn2nc3c(c21)CCc1c-3ccnc1Cl [Example 194] | 
4 | 27.9 µM | NC(=O)C1Cn2nc3c(c2C(=O)N1)CCc1cnc(-c2cnc4ccccc4c2)cc1-3 (stereo not shown) [Example 195] | 
5 | 28.2 µM | CS(=O)(=O)NCCCn1nc2c(c1C(=O)O)CCc1cnccc1-2 [Example 196] | 
6 | 29.4 µM | CCC(CC)CNCCCCn1nc2c(c1C(=O)O)CCc1cnccc1-2 [Example 197] | 
7 | 30.1 µM | COc1ccc(CC(=O)NCCCn2nc3c(c2C(=O)O)CCc2cnccc2-3)cc1 [Example 198] | 
8 | 33.3 µM | N#CC1CCn2nc3c(c2C(=O)N1)CCc1cnccc1-3 (stereo not shown) [Example 199] | 
9 | 33.3 µM | CC(C)S(=O)(=O)NCCCn1nc2c(c1C(=O)O)CCc1cnccc1-2 [Example 200] | 
10 | 33.5 µM | NCCCn1nc2c(c1CCl)CCc1cnccc1-2 [Example 201] | 
11 | 35.6 µM | CC(C)(C)CCc1cc2c(cn1)CCc1c-2nn2c1C(=O)NCC2 [Example 202] | 
12 | 36 µM | CCOC(=O)c1c2c(nn1CCN)-c1cc(Cl)ncc1CC2 [Example 204] | 
13 | 36.4 µM | O=C1NCCn2nc3c(c21)CCc1cnc(-c2ccc(OCc4ccccc4)cc2)cc1-3 [Example 205] | 
14 | 36.8 µM | O=C(O)c1c2c(nn1CC(O)CNCc1cccs1)-c1ccncc1CC2 (stereo not shown) [Example 206] | 
15 | 39.4 µM | O=C(O)c1c2c(nn1CCCNc1cccnc1)-c1ccncc1CC2 [Example 208] | 
16 | 42.5 µM | CCOC(=O)NC(=O)NCCCn1nc2c(c1C(=O)O)CCc1cnccc1-2 [Example 209] | 
17 | 47.9 µM | NC(=O)C1CCN(CCCn2nc3c(c2C(=O)O)CCc2cnccc2-3)CC1 [Example 210] | 
18 | 50.1 µM | NC(=O)CCCn1nc2c(c1C(=O)O)CCc1cnccc1-2 [Example 211] | 
19 | 52 µM | c1ccc2ncc(-c3cc4c(cn3)CCc3c[nH]nc3-4)cc2c1 [Example 212] | 
20 | 53.5 µM | CCCCNC(=O)NCCCn1nc2c(c1C(=O)O)CCc1cnccc1-2 [Example 213] | 
21 | 53.7 µM | c1coc(-c2[nH]nc3c2CCc2cnccc2-3)c1 [Example 214] | 

Row | IC50 (read-out: MK-2 Avg. IC50) | Structure (SMILES) | IC50 (MK-2 Avg. IC50)
22 | 53.8 µM | O=C1NCCn2nc3c(c21)CCc1c-3ccnc1Nc1ccccc1 [Example 215] | 
23 | 54.8 µM | NCCCN1CCn2nc3c(c2C1=O)CCc1cnccc1-3 [Example 216] | 
24 | 55.3 µM | C=CCNC(=O)NCCCn1nc2c(c1C(=O)O)CCc1cnccc1-2 [Example 217] | 
25 | 56.3 µM | O=C(O)c1c2c(nn1CCCNCC(F)(F)F)-c1ccncc1CC2 [Example 218] | 
26 | 59.5 µM | O=C1CCCn2nc3c(c21)CCc1cnccc1-3 [Example 219] | 
27 | 60.7 µM | CN(C)CCNc1cc2c(cn1)CCc1c-2nn2c1C(=O)NCC2 [Example 220] | 
28 | 62.1 µM | CCC(CC)CNCCn1nc2c(c1C(=O)O)CCc1cnccc1-2 [Example 221] | 
29 | 62.5 µM | C#Cc1cnc2c(c1)-c1nn(CCN)c(C(=O)OCC)c1CC2 [Example 222] | 
30 | 63.2 µM | O=C1NCCn2nc3c(c21)CCc1cnc(CCc2ccc(Cl)cc2)cc1-3 [Example 223] | 
31 | 63.4 µM | O=C(O)c1[nH]nc2c1CCc1cnccc1-2 [Example 224] | 
32 | 66.1 µM | O=C(Cc1cccs1)NCCCn1nc2c(c1C(=O)O)CCc1cnccc1-2 [Example 226] | 
33 | 68 µM | O=C(NCCCn1nc2c(c1C(=O)O)CCc1cnccc1-2)c1ccccc1 [Example 227] | 
34 | 69.3 µM | CN(C)CC(O)Cn1nc2c(c1C(=O)N(C)C)CCc1cnccc1-2 (stereo not shown) [Example 228] | 
35 | 71 µM | O=C(O)c1c2c(nn1CC=NO)-c1ccncc1CC2 [Example 229] | 
36 | 75.4 µM | C=CCn1nc2c(c1C(=O)O)CCc1c[n+]([O-])ccc1-2 [Example 230] | 
37 | 76.6 µM | Cn1nc2c(c1C(=O)O)CCc1cnccc1-2 [Example 231] | 
38 | 78.7 µM | O=S(=O)(Cc1ccc(Cl)cc1)NC1CCCn2nc3c(c21)CCc1cnccc1-3 (stereo not shown) [Example 232] | 
39 | 80.6 µM | Cc1ccc(S(=O)(=O)NC(=O)NCCCn2nc3c(c2C(=O)O)CCc2cnccc2-3)cc1 [Example 233] | 
40 | 83.4 µM | CSc1nccc2c1CCc1c-2nn(CCCN)c1C(=O)O [Example 234] | 
41 | 84.3 µM | O=C(O)c1c2c(nn1CC=NO)-c1ccncc1CC2 [Example 235] | 
42 | 84.4 µM | CC1CCCN(c2cc3c(cn2)CCc2c-3nn3c2C(=O)NCC3)C1 (stereo not shown) [Example 236] | 

Row | IC50 (read-out: MK-2 Avg. IC50) | Structure (SMILES) | IC50 (MK-2 Avg. IC50)
43 | 85.2 µM | CSc1[nH]nc2c1CCc1cnccc1-2 [Example 237] | 
44 | 86.1 µM | c1cc2c(cn1)CCc1c[nH]nc1-2 [Example 238] | 
45 | 87.6 µM | NCCCn1nc2c(c1C(=O)O)CCc1c-2ccnc1-c1ccccc1 [Example 239] | 
46 | 87.6 µM | NC(=O)C1CCN(CC(O)Cn2nc3c(c2C(=O)O)CCc2cnccc2-3)CC1 (stereo not shown) [Example 240] | 
47 | 87.9 µM | Cc1ccc(C(C)CCN(CCCn2nc3c(c2C(=O)O)CCc2cnccc2-3)CCC(C)c2ccc(C)o2)o1 (stereo not shown) [Example 241] | 
48 | 93.4 µM | O=C1NCCCn2nc3c(c21)CCc1cnc(-c2ccc(OCc4ccccc4)cc2)cc1-3 [Example 242] | 
49 | 94.2 µM | O=C1NCCn2nc3c(c21)CCc1cnc(Cc2ccc(Cl)cc2)cc1-3 [Example 243] | 
50 | 96.5 µM | FC(F)c1[nH]nc2c1CCc1cnccc1-2 [Example 244] | 
51 | 98.3 µM | O=C1NCCn2nc3c(c21)CCc1cnc(-c2cccc4ncccc24)cc1-3 [Example 246] | 
52 | 100 µM | NCCCn1nc(-c2nnn[nH]2)c2c1-c1ccncc1CC2 [Example 247] | 
53 | 101 µM | CC(C)(C)c1ccc(-c2cc3c(cn2)CCc2c-3nn3c2C(=O)NCC3)cc1 [Example 248] | 
54 | 101 µM | O=C(O)c1c2c(nn1CCCNc1ccncc1)-c1ccncc1CC2 [Example 249] | 
55 | 101 µM | CN(c1ccccc1)c1cc2c(cn1)CCc1c-2nn2c1C(=O)NCC2 [Example 250] | 
56 | 102 µM | O=C1c2c3c(nn2CCN1CCCc1ccccc1)-c1ccncc1CC3 [Example 251] | 
57 | 103 µM | CCCn1nc2c(c1C(N)=O)CCc1cnc(-c3cnc4ccccc4c3)cc1-2 [Example 252] | 
58 | 109 µM | O=C(NCCCn1nc2c(c1C(=O)O)CCc1cnccc1-2)c1ccncc1 [Example 253] | 
59 | 112 µM | CC(C)(C)OC(=O)NCCCn1nc2c(c1C(=O)O)CCc1cnc(Cl)cc1-2 [Example 254] | 
60 | 113 µM | CCCCOc1ccc(S(=O)(=O)NCCCn2nc3c(c2C(=O)O)CCc2cnccc2-3)cc1 [Example 255] | 
61 | 116 µM | O=C(CCc1ccco1)NCCCn1nc2c(c1C(=O)O)CCc1cnccc1-2 [Example 256] | 
62 | 119 µM | O=C1NCCn2nc3c(c21)CCc1cnc(-c2ccc(Oc4ccccc4)cc2)cc1-3 [Example 257] | 
63 | 119 µM | C=CCn1nc2c(c1C(N)=O)CCc1cnc(-c3cnc4ccccc4c3)cc1-2 [Example 258] | 

Row | IC50 (read-out: MK-2 Avg. IC50) | Structure (SMILES) | IC50 (MK-2 Avg. IC50)
64 | 121 µM | O=C1NCCn2nc3c(c21)CCc1cnc(CCC2CCCCC2)cc1-3 [Example 259] | 
65 | 128 µM | O=C(O)c1c2c(nn1CC(O)CN1CCOCC1)-c1ccncc1CC2 (stereo not shown) [Example 260] | 
66 | 129 µM | O=C(NCCCn1nc2c(c1C(=O)O)CCc1cnccc1-2)c1ccccn1 [Example 261] | 
67 | 130 µM | N#Cc1ccc(S(=O)(=O)NCCCn2nc3c(c2C(=O)O)CCc2cnccc2-3)cc1 [Example 262] | 
68 |  | ON=C1CCCn2nc3c(c21)CCc1cnccc1-3 [Example 263] | 131 µM
69 | 133 µM | CCCCCCc1cc2c(cn1)CCc1c-2nn2c1C(=O)NCC2 [Example 264] | 
70 | 135 µM | CNC(=O)c1[nH]nc2c1CCc1cnccc1-2 [Example 265] | 
71 | 136 µM | NC1CCN(CC(O)Cn2nc3c(c2C(=O)O)CCc2cnccc2-3)CC1 (stereo not shown) [Example 266] | 
72 | 141 µM | COc1cccc(S(=O)(=O)NCCCn2nc3c(c2C(=O)O)CCc2cnccc2-3)c1 [Example 267] | 
73 | 149 µM | CC(C)(C)OC(=O)NC1CCN(CCCn2nc3c(c2C(=O)O)CCc2cnccc2-3)CC1 [Example 269] | 
74 | 156 µM | CN1CCn2nc3c(c2C1=O)CCc1cnccc1-3 [Example 270] | 
75 | 161 µM | COC(=O)c1c2c(nn1CCO)-c1ccncc1CC2 [Example 271, hydrochloride] | 
76 | 162 µM | O=C(O)c1c2c(nn1CC(O)CN1CCCC1)-c1ccncc1CC2 (stereo not shown) [Example 272, hydrochloride] | 
77 | 163 µM | O=C(O)c1c2c(nn1CC(O)CNCCc1cccs1)-c1ccncc1CC2 (stereo not shown) [Example 273] | 
78 | 164 µM | Cn1cnc(S(=O)(=O)NCCCn2nc3c(c2C(=O)O)CCc2cnccc2-3)c1 [Example 274] | 
79 | 171 µM | COC(=O)c1[nH]nc2c1CCc1cnccc1-2 [Example 275] | 
80 | 176 µM | CC(=O)Nc1ccc(S(=O)(=O)NCCCn2nc3c(c2C(=O)O)CCc2cnccc2-3)cc1 [Example 276] | 
81 | 186 µM | NCCCn1nc2c(c1CO)CCc1cnccc1-2 [Example 277] | 

Row | Structure (SMILES) | IC50 (read-out: MK-2 Avg. IC50) | IC50 (MK-2 Avg. IC50)
82 | O=C1NCCn2nc3c(c21)CCc1cnc(N2CCNCC2)cc1-3 [Example 225] | 64.9 µM | 
